Where “and” joins values, the source holds several entries; their conditions need not be identical. Identical values can stand only once. Peptide text beside a SMILES is read from it. * marks the point of attachment. pNA = O=[N+]([O-])c1ccc(N*)cc1; Boc = CC(C)(C)OC(=O)*
target: Genome polyprotein (dengue virus type 2, UniProt P29990); assay type: functional, Thailand/16681/1984
Sequence (P29990 1346-1475 limits assumed): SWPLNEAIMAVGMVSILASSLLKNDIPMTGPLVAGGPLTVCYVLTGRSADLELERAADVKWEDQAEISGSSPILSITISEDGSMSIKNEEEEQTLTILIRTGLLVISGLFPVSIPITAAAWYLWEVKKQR
Sequence (P29990 1476-2093 limits assumed): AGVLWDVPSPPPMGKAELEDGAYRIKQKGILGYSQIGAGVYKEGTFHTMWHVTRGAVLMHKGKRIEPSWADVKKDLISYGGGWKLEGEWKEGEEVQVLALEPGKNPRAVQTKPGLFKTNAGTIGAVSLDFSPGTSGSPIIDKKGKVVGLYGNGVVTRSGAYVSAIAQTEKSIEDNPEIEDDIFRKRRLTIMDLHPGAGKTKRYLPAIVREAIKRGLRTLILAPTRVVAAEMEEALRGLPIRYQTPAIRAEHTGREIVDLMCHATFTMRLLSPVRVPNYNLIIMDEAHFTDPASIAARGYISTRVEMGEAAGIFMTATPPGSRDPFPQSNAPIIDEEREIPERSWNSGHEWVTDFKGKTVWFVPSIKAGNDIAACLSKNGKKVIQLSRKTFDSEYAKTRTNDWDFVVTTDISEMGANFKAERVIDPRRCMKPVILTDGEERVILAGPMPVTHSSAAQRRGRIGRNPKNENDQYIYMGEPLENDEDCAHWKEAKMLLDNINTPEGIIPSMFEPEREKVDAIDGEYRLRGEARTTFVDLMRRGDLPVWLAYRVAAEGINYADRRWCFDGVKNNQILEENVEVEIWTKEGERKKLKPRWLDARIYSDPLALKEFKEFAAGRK

SMILES	IC50
O=C(O)c1cc(Cl)ccc1S(=O)(=O)Nc1nn(Cc2ccccc2)cc1Cl	> 99.5 µM
c1cnc2c(c1)CC[C@@H]2NCc1n[nH]c2ccccc12	> 99.5 µM
CCC1CN(C(=O)c2cc(Cl)ccc2NS(=O)(=O)c2ccc(Oc3ccccc3Cl)cc2)C1	> 99.5 µM
O=C(O)c1cc(Cl)ccc1S(=O)(=O)NC1CCN(C(=O)c2ccccc2C(F)(F)F)CC1	> 99.5 µM
CN(C)Cc1ccc(C(=O)Nc2cc(Cl)cc(C(=O)NC(C)(C)CO)c2)[nH]1	> 99.5 µM
CN(C)Cc1cc(NC(=O)[C@@H](NC(=O)OCc2ccccc2)c2ccc(OCc3ccccc3)cc2)ccc1Cl	> 99.5 µM
C[C@@H](NC(=O)c1cc(Cl)ccc1NS(=O)(=O)c1ccc(Oc2ccccc2Cl)cc1)C1COC1	70.2 µM
CCCN(C)C(=O)c1cc(Cl)ccc1NS(=O)(=O)c1ccc(Oc2ccccc2Cl)cc1	27.9 µM
O=C(O)c1cc(Cl)ccc1NS(=O)(=O)c1ccc(NC2CCNCC2)nc1	> 99.5 µM
N#Cc1csc(CSc2nnc(C(F)(F)F)s2)n1	> 99.5 µM
Cc1ccc2cccc(NC(=O)C3CCN(c4ccc(C=O)cc4)CC3)c2n1	22.4 µM
CCn1cc(-c2cccc(OC)c2F)nc(N2CC[C@@H](CO)C2)c1=O	> 99.5 µM
O=C(N[C@@H](C(=O)NCC1CCNCC1)c1ccc(OCc2ccccc2)cc1)OCc1ccccc1	> 99.5 µM
CS(=O)(=O)NCc1ccc(CNC(=O)[C@@H](NC(=O)OCc2ccccc2)c2ccc(OCc3ccccc3)cc2)cc1	> 99.5 µM
Cc1ccc([C@@H](NC(=O)OCc2ccccc2)C(=O)Nc2cccc(CN)c2)cc1C(F)(F)F	> 99.5 µM
CC[C@H]1CCN(c2nccn(CC)c2=O)C1	> 99.5 µM
CN1CCC[C@H]1COc1cccc([C@@H](NC(=O)OCc2ccccc2)C(=O)Nc2cccc(CN)c2)c1	> 99.5 µM
CSCc1nnc(SCc2ccncc2)o1	> 99.5 µM
OC[C@H]1CCN(c2ccnc(C(F)F)c2)C1	> 99.5 µM
O=C(O)c1cc(Cl)c(F)cc1S(=O)(=O)Nc1ccc(Oc2ccccc2Cl)cc1	11.2 µM and 10.7 µM
Cc1ccc(COc2ccc(S(=O)(=O)Nc3ccc(Cl)cc3C(=O)O)cc2)cc1	9.45 µM
COc1ccc(F)cc1-c1ccc(S(=O)(=O)Nc2ccc(Cl)cc2C(=O)O)cc1	11.7 µM
COC(=O)Cc1ccccc1-c1ccc(S(=O)(=O)Nc2ccc(Cl)cc2C(=O)O)cc1	35.5 µM
Cc1[nH]c2ccccc2c1CN1CCC(c2nc3ccccc3s2)CC1	> 99.5 µM
CCn1cc(C#N)nc(N2CC[C@@H](CO)C2)c1=O	> 99.5 µM

SMILES	IC50
NCc1cccc(NC(=O)C[C@@H](NC(=O)OCc2ccccc2)c2ccc(OCc3ccccc3)cc2)c1	10.4 µM
CCn1cc(-c2ccncc2F)nc(N2CC[C@@H](CO)C2)c1=O	> 99.5 µM
CC(C)Nc1nc2ccc(C(=O)Nc3nnnn3-c3ccccn3)cc2[nH]1	> 99.5 µM
Cc1ccc2c(c1)CN(C(=O)c1ccc(C3(CN)CC3)cc1)C(C)(C)C2	> 99.5 µM
O=C(Nc1cc(Cl)cc(C(=O)Nc2nc3c(s2)CCNC3)c1)OCc1ccccc1	> 99.5 µM
CC(=O)N[C@H](C(=O)N[C@H]1C(=O)O[C@H]1C)c1ccc(OCc2ccccc2)cc1	> 99.5 µM
CCn1c(=O)c(N2CC[C@H]3[C@H]2[C@H]3C(F)(F)F)nc2ccccc21	> 99.5 µM
Cc1ccc(F)c(-c2ccc([C@@H](NC(=O)OCc3ccccc3)C(=O)Nc3cccc(CN)c3)cc2)c1	9.46 µM
CCn1nc(-c2ccccc2)cc1NS(=O)(=O)c1ccc(Cl)cc1C(=O)O	> 99.5 µM
NCc1cccc(S(=O)(=O)Cc2cc(Cl)cc(NC(=O)OCc3ccccc3)c2)c1	> 99.5 µM
NCc1cccc(NC(=O)[C@H]2c3ccc(Br)cc3CCN2C(=O)OCc2ccccc2)c1	> 99.5 µM
O=c1[nH]ncn1C1CCN(Cc2c[nH]c3ccccc23)CC1	> 99.5 µM
Cc1ccccc1-c1nc2c(C(=O)Nc3ccc4c(c3)CNC4)cc(F)cc2[nH]1	3.46 µM and 3.38 µM
O[C@@H]1CN(Cc2c[nH]c3ccccc23)C[C@H]1c1c[nH]c2ccccc12	> 99.5 µM
NCc1cccc(NC(=O)[C@@H](NC(=O)OCc2ccccc2)c2ccc(-c3cccc4nonc34)cc2)c1	11.6 µM and 5.73 µM
NCc1cccc(NC(=O)c2cc(Cl)cc(CNC(=O)OCc3ccccc3)c2)c1	84.3 µM
CNc1nc2cc(-c3ccc4c(c3)C[C@H](N)C4)ccc2o1	> 99.5 µM
Cc1cccc(-c2ccc([C@@H](NC(=O)OCc3ccccc3)C(=O)Nc3cccc(CN)c3)cc2)c1	9.31 µM
CCN1CCN(c2ccc(NS(=O)(=O)c3ccc(Cl)cc3C(=O)O)cc2)CC1	> 99.5 µM
Cc1c(C(F)(F)F)n[nH]c1CN1CCC(c2cscn2)CC1	> 99.5 µM
CCn1c(=O)c(N2CC[C@]3(CCNC3=O)C2)nc2ccccc21	> 99.5 µM
CSCC[C@H](NC(=O)OC(C)(C)C)C(=O)N1CCC[C@H]1C(=O)Nc1ccc([N+](=O)[O-])cc1 (Boc-Met-Pro-pNA)	> 99.5 µM
Cc1n[nH]cc1-c1ccc([C@@H](NC(=O)OCc2ccccc2)C(=O)Nc2cccc(CN)c2)cc1	> 99.5 µM
O=C(N[C@@H]1CCc2cn[nH]c2C1)c1cccc2c1NC(=O)[C@]1(CCCN1)C2	> 99.5 µM
C[C@]1(C(=O)N[C@H](C(=O)Nc2cccc(CN)c2)c2ccc(OCc3ccccc3)cc2)CCCO1	> 99.5 µM

SMILES	IC50
CCn1c(=O)c(N2CC[C@@]23CCN(C)C3)nc2ccccc21	> 99.5 µM
NCc1cccc(NC(=O)C2(CNC(=O)OCc3ccccc3)CCCC2)c1	> 99.5 µM
CCS(=O)(=O)N[C@@H](C(=O)Nc1cccc(CN)c1)c1ccc(OCc2ccccc2)cc1	> 99.5 µM
NCc1cccc(NC(=O)[C@@H](NC(=O)OCc2ccccc2)c2ccc(-c3cncnc3)cc2)c1	> 99.5 µM
CCn1c(=O)c(N2C[C@]3(CO)C[C@H]2CO3)nc2ccccc21	> 99.5 µM
CN(C)Cc1ccccc1CNC(=O)[C@@H](NC(=O)OCc1ccccc1)c1ccc(OCc2ccccc2)cc1	> 99.5 µM
NCc1cccc(NC(=O)c2cc(NC(=O)OCc3ccccc3)cc3c2OC(F)(F)O3)c1	> 99.5 µM
CCc1ccc(-c2cn(CC)c(=O)c(N3CC[C@@H](CO)C3)n2)s1	> 99.5 µM
NCc1cccc(NC(=O)[C@@H](NC(=O)OCc2ccccc2)c2ccc(Cl)cc2)c1	> 99.5 µM
CCn1c(=O)c(N2CCC[C@H]2c2nncs2)nc2ccccc21	> 99.5 µM
CS(=O)(=O)NC(=O)c1cc(Cl)ccc1NS(=O)(=O)c1ccc(Oc2ccccc2Cl)cc1	12.2 µM
NCc1cccc(NC(=O)[C@H](NC(=O)OCc2ccccc2)c2cccc(OCc3ccccn3)c2)c1	> 99.5 µM
CCCNC(=O)Cn1ccnc(N2CC[C@H](CO)C2)c1=O	> 99.5 µM
CC1CCN(CCCCNC(=O)C2CCN(c3ccc(C=O)cc3)CC2)CC1	> 99.9 µM
NCc1cccc(NC(=O)[C@H](NS(=O)(=O)C2CCCCC2)c2ccc(OCc3ccccc3)cc2)c1	> 99.5 µM
Cc1ccc([C@H]2[C@H](C)CN2C(=O)c2ccc(C(F)(F)CN)cc2)cc1	> 99.5 µM
NCc1cccc(NC(=O)[C@@H]2Cc3ccc(OCc4ccccc4)cc3CN2C(=O)OCc2ccccc2)c1	86.7 µM
O=C(O)c1cc(Cl)ccc1NS(=O)(=O)c1ccc(-c2ccc(F)cc2)cc1	12.5 µM
NC1CCN(C(=O)c2cc(Cl)cc(NC(=O)OCc3ccccc3)c2)CC1	> 99.5 µM
O=c1c2ccccc2nnn1CSc1nnc(-c2ccccc2)o1	> 99.5 µM
NCc1cccc(NC(=O)[C@H]2c3ccc(Br)cc3OCCN2C(=O)OCc2ccccc2)c1	> 99.5 µM
Cn1c(Sc2nc3ccccc3o2)nc2sccc2c1=O	> 99.5 µM
NCc1cccc(NC(=O)[C@@H](NC(=O)OCc2ccccc2)c2ccc(Br)cc2)c1	88.3 µM and 63.1 µM
CCn1c(=O)c(N2CC[C@]3(CNC(=O)O3)C2)nc2ccccc21	> 99.5 µM
O=C(O)c1cc(Cl)ccc1S(=O)(=O)NC1CCN(Cc2ccc(F)c(F)c2)CC1	> 99.5 µM

SMILES	IC50
O=C(Nc1ccc(Cl)cc1C(=O)O)c1ccc(Oc2ccccc2Cl)cc1	42.5 µM
NCc1cccc(NC(=O)[C@@H](NC(=O)OCc2ccccc2)c2cccc(OCC3CCC3)c2)c1	44 µM
O=C(O)c1cc(Cl)ccc1S(=O)(=O)Nc1ccc(F)c(N2CCNC2=O)c1	> 99.5 µM
Cc1cc(NS(=O)(=O)c2ccc(Oc3ccccc3Cl)cc2)c(C(=O)NCC(F)(F)F)cc1F	22.1 µM
NCC1CCN(C(=O)c2cc(Cl)cc(NC(=O)OCc3ccccc3)c2)CC1	> 99.5 µM
NCc1cccc(NC(=O)[C@H](NC(=O)C2CCCCC2)c2ccc(OCc3ccccc3)cc2)c1	17.6 µM and 20.7 µM and 12.3 µM
NCc1cccc(NC(=O)C[C@H](NC(=O)OCc2ccccc2)c2ccc(OC(F)(F)F)cc2)c1	42.9 µM and 44.6 µM
Cc1c(C(=O)Nc2cc(CCCN)ccn2)cc(-c2ccccc2)n1C	> 99.5 µM
Clc1cc(Cl)c2c(CN3CCC(c4cscn4)CC3)c[nH]c2c1	> 99.5 µM
c1cc2sccc2c(N2CCN(Cc3ccc4cn[nH]c4c3)CC2)n1	> 99.5 µM
C=C1C[C@H](c2cccc(CN)c2)[C@@H](c2cc(Cl)cc(NC(=O)OCc3ccccc3)c2)C1	> 99.5 µM
NCc1cccc(CNC(=O)[C@@H](NC(=O)OCc2ccccc2)c2ccc(OCc3ccccc3)cc2)n1	> 99.5 µM
O=C(Nc1cc(Cl)cc(C(=O)Nc2ccc3c(c2)C[C@H](F)C3)c1)OCc1ccccc1	> 99.5 µM
NCc1cccc(NC(=O)C[C@@H](NC(=O)OCc2ccccc2)c2ccc3c(c2)OCO3)c1	> 99.5 µM
NCc1cccc(NC(=O)[C@@H](NC(=O)OCc2ccccc2)c2cccc(OCc3cncnc3)c2)c1	> 99.5 µM
CCN1CCN(c2ccc(NC(=O)C3CCN(c4ccc(C=O)cc4)CC3)cc2)CC1	73 µM
c1cncc(CC2CN(Cc3n[nH]c4ccccc34)C2)c1	> 99.5 µM
c1nnc(SCCCSc2nncs2)s1	> 99.5 µM
O=Cc1ccc(N2CCC(C(=O)NCCC3CCN(Cc4ccccc4)CC3)CC2)cc1	99.7 µM
Cc1nocc1S(=O)(=O)N[C@H](C(=O)Nc1cccc(CN)c1)c1ccc(OCc2ccccc2)cc1	> 99.5 µM
CCNC(=O)Nc1cc(Cl)cc(C(=O)Nc2cccc(C3CCNCC3)c2)c1	> 99.5 µM
O=C(O)c1cc(Cl)ccc1S(=O)(=O)N[C@H]1CC[C@@H](Oc2cnccn2)CC1	> 99.5 µM
CC(C)NC(=O)[C@H](Nc1ccc2c(c1)CNC2)c1cc(Cl)cc2[nH]c(-c3ccccc3)nc12	10.2 µM and 4.1 µM and 35.8 µM
COC(=O)C1(S(=O)(=O)N[C@H](C(=O)Nc2cccc(CN)c2)c2ccc(OCc3ccccc3)cc2)CCC1	> 99.5 µM
Nc1ccc(C(=O)Nc2nc3ccccc3s2)nc1	> 99.5 µM

— ChEMBL document CHEMBL5604063, “ASAP - DENV-2 NS2B-NS3 protease fluorescence dose response” (2024)
